Values joined by “and” are separate entries in the source; they are usually repeats but may differ in a detail not shown here. Equal values may be shown once. Blank lines part the entries; values can stand above or below the compound they belong to.
Key:
IAPP [1] = target: T1, IAPP (Homo sapiens, UniProt P10997); assay: Rate of amyloid fibril formation by Thioflavine T spectroscopy (Example 1); assay type: biochemical; settings: Thioflavine T fluorescence
T1 sequence (P10997 34-70 limits assumed): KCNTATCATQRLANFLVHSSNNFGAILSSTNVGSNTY
Experimental: Determination of the Rate of Amyloid Fibril Formation by Thioflavine T Spectroscopy
Detection of ThT fluorescence can be used as a sensitive assay for amyloid fibril formation under different conditions. This assay has been used in experiments to determine the effects of compounds of the invention on amyloid fibril formation.
Human IAPP was dissolved in 40% trifluoroethanol and freeze-dried into conveniently-sized aliquots. IAPP was prepared immediately before the measurements by dissolving in 40% 1,1,1,3,3,3-hexafluoro-2-propanol (HFIP) in water to maintain the peptide in alpha helical conformation and soluble. A stock solution of ThT (2.5 mM) was prepared, 7.9 mg in 10 mL Tris-HCl pH 7.0 and filtered (0.22 μm). Solutions were kept in the dark until use. Fluorescence was examined at 440 nm excitation (slit 5 nm), and emission at 482 nm (slit 10 nm) with stirring. […] of ThT stock (final concentration 62.5 μM) was added to peptide sample and made up to 1 mL in the cuvette. The sample was stirred for 5 min. before taking a reading. Measurements were made at an initial time point (5 min. from sample preparation), at intervals over the next 4-6 h and after overnight incubation at room temperature.

Human IAPP (hIAPP) = target: T2, Human IAPP (hIAPP) (Homo sapiens, UniProt P10997); assay: ELISA assay for quantitative determination of fibril formation (Example 4); assay type: biochemical; settings: for proportion of non-fibrillar IAPP in the supernatant: IAPP 20 μM, inhibitor:IAPP molar ratio 10:1, compared to control
T2 construct: Human IAPP (hIAPP) was synthesised by solid state synthesis (Advanced Biotechnologies, UK); purchased Advanced Biotechnologies, UK; host or cells: chemical solid-phase synthesis
T2 sequence (P10997 34-70 limits assumed): T1 sequence (P10997 34-70 limits assumed)
Experimental: ELISA Assay for Quantitative Determination of Fibril Formation
Human IAPP (hIAPP) was synthesised by solid state synthesis (Advanced Biotechnologies, UK). Human IAPP forms fibrils immediately in aqueous media. Aliquots of IAPP in water (800 μg/ml) were stored frozen at −20° C. until use. These samples contain small numbers of fibrils visible with electron microscopy (em).
Two sets of samples containing IAPP (20 μM) with or without inhibitors (at a molar ratio of 10:1 with IAPP, (20 μM)) were prepared on day 1 in Tris buffer. One set was centrifuged, the supernatant removed and frozen immediately at −20° C. (Time zero time point). The other set was incubated overnight at room temp with shaking (time 24 h time point). On day 2 these samples were spun and supernatant removed to determine the proportion of non-fibrillar IAPP.
To assay IAPP in the supernatant both sets of samples were serially diluted in bicarbonate coating buffer, added to ELISA wells and incubated overnight. Plates were washed in phosphate buffer containing Tween (PBS/Tw)×3. Diluted antiserum raised against human IAPP was incubated on the plate for 90 minutes at 37° C. Following washing in PBS/Tw, alkaline phosphatase conjugated anti-rabbit antisera was incubated for 90 mins. Following washing in PBS/Tw, alkaline phosphate substrate was added and colour allowed to develop for 30 mins. Optical density was read at 405 nm.
Data from all samples was calculated to determine changes of IAPP concentration in the supernatant induced by the candidate substance immediately (i.e. at time zero) or after 24 h incubation. Data in FIG. 1 is expressed as the proportion of non-fibrillar IAPP in the supernatant of test samples compared to control at both time points.

IAPP [2] = target: T1, IAPP; assay: Rate of fibril formation by Thioflavine T spectroscopy (Example 5); assay type: biochemical; settings: thioflavine T assay
Experimental: Determination of the Rate of Fibril Formation by Thioflavine T Spectroscopy
This can be used as a sensitive assay for fibril formation under different conditions. This assay has been used in experiments to determine the effects of some candidate compounds on fibril formation.
Human IAPP was dissolved in 40% Trifuoroethanol and freeze dried into convenient sized aliquots. IAPP (1 mg/ml) was prepared immediately before the measurement by dissolving in 40% HFIP in water to maintain the peptide in alpha confirmation and soluble. A stock solution of Thioflavine T (2.5 mM) was prepared 7.9 mg in 10 ml Tris pH 7.0 and filtered (0.22 micron). Solutions were kept in dark until use. Fluorescence was examined at 440 nm excitation (slit 5 nm), and Emission at 482 nm (Slit 10 nm) with stirring. Twenty five microlitres of Th-T stock (final conc 62.5 μM) was added to peptide sample (8 μg/ml) and made up to 1 ml in the cuvette. The sample was stirred for 5 min before taking a reading. Measurements were made at an initial time points (5 mins from sample preparation) and at intervals over the next 4-6 h after overnight incubation at room temp with and without candidate compound (vi) and a compound known to accelerate fibril formation, polyvinylsulphonate.

IAPP fibrils = target: T3, IAPP fibrils (Homo sapiens, UniProt P10997); assay: Morphological characteristics of IAPP fibrils by transmission electron microscopy (Example 10); assay type: biochemical; settings: incubated 48 h, compared with IAPP alone
T3 sequence (P10997 34-70 limits assumed): T1 sequence (P10997 34-70 limits assumed)
Experimental: Morphological Characteristics of IAPP Fibrils Formed in Mixtures with Candidate Compounds.
IAPP prepared as in Example 3 was incubated with candidate compounds for 48 h Samples were then examined by transmission electron microscopy for the presence of fibrils. […] Long and short unbranching fibrils were present.

IAPP [3] = target: T1, IAPP; assay: Circular dichroism analysis of β-sheet conformation (Example 2); assay type: biochemical; parameters: add 10 μL of 10 mg/mL IAPP stock solution (final 100 μg peptide); settings: changes in ellipticity at 218 nm (β-sheet conformation); peptide:compound 1:10
Experimental: Circular dichroism analysis was conducted to confirm the activity of certain therapeutic compounds in preventing or inhibiting IAPP-associated fibril formation in accordance with the present disclosure by determining the presence or absence of β-sheet conformation.
The assay, a co-incubation procedure, examines the ability of a compound or substance to inhibit the assembly of amyloid fibrils, e.g., to test for the presence of the amyloidotic b-sheet conformation in the presence of soluble IAPP. Samples are run in the presence and absence (i.e., water alone) of buffering agent, which is done to determine if competitive effects are seen with the ionic buffer (usually phosphate).
Add components used at a molar ratio of 1:10 [peptide:compound]; add 10 μL of 10 mg/mL IAPP stock solution (final 100 μg peptide) to the aqueous solution containing compound to a final volume of 400 μl. The pH of the final assay solution is measured to ensure there is no fluctuation and the spectrum is accumulated using the parameters as shown above.
Add desired amount of compound to achieve a 1:10 molar ratio in 10 mM phosphate buffer, pH 7. Add 10 μL of 10 mg/mL IAPP stock solution (final peptide 100 μg) to the phosphate buffered solution containing the compound and bring to a final volume of 400 μL. The pH of the final assay solution is measured to ensure there is no fluctuation and the spectrum is accumulated using the parameters as shown above.
In both assays, a control sample is run with each test group. This control contains peptide only in water or buffer at a similar final volume of 400 μl. Spectra for the control are collected initially (first run) and at the end of the test (final run) to ensure that the peptide has not undergone extensive aggregation during the course of the assay. Spectra for the controls are used to compare with the measurements obtained with the treated samples.
Make fresh 1 mg/mL stock solution of IAPP in 10 mM phosphate buffer, pH 7. Add desired amount of compound to achieve a 1:10 molar ratio in 10 mM phosphate buffer, pH 7. Incubate for 3 days at room temperature. Make up to final volume of 400 μL with 10 mM phosphate buffer, pH 7. The pH of the final assay solution is measured to ensure there is no fluctuation and the spectrum is accumulated using the parameters as shown above. A similar control is run for comparative purposes.
Plots of the spectra (control and treated) are individually assembled and the changes in ellipticity at 218 nm are examined. This minimum is directly correlated with the amount of peptide in β-sheet conformation present in the sample. Changes in either a positive or negative direction are noted and a relative value (“active” or “not active”) assigned to the compound as a measure of activity.

[4] = tested on: amyloid in transgenic islets cells expressing human IAPP; assay: Electron micrograph analysis of amyloid in cultured transgenic islets; assay type: cell-based, mouse
Description: These are used as a test system for determining the toxicity and effect of putative amyloid inhibitors in short term culture systems. Whereas normal mice can be used to determine toxicity of compounds added to the media, amyloid fibrils form only in murine islets isolated from transgenic mice expressing the gene for human IAPP (transgene incorporation was confirmed by PCR). These islets are isolated in a similar way to that of human islets and are handpicked from the digest and cultured in 16.7 mM glucose as above. Amyloid fibrils formed within 4 days of culture and can be quantified by quantitative electron microscopy. […] The cells were cultured for 6 days in 11.1 mM glucose and RPMI.
Transgenic islets cells were cultured as described above, for 7 days and the media changed every two days. At the end of the culture period the islets were fixed in 2.5% glutaraldehyde in 0.1M sodium phosphate buffer (pH 7.2) for one hour and post-fixed in 1% osmium tetroxide, and embedded in Spurr's resin (Taab Laboratories, Reading, UK) or contrast enhanced in 2% Uranyl Acetate, dehydrated in methanol and embedded in LRGold (Taab, as previous). Ultrathin sections of the islets were mounted on formvar coated nickel grids. Amyloid was identified by immunogold labelling of tissue sections with an antisera raised to human IAPP 1-37, human IAPP 17-37, rat IAPP 1-37 and goat anti-rabbit gold conjugate (10 nm diameter) either from Biocell, Cardiff, UK or Sigma or by use of protein A gold. Grids were examined in a JOEL electron microscrope at an excitation voltage of 80 kV.
Images of 3 islet sections at a low magnification were prepared. A montage of each islet was made from electron micrographs and the areas of both intra and extra cellular amyloid identified and marked. The total islet area, together with the area of intra and extra cellular amyloid was then calculated using image analysis (Kontron Image Processor). 3 separate islets were examined for each condition.

[5] = Average of 3 islets, 7 days culture
[6] = individual islets 1-3, 7 days culture

SMILES: O=C(O)C(F)(F)C(F)(F)C(F)(F)C(=O)O [vi, Hexafluoroglutaric acid]
- IAPP-associated fibril assembly (IAPP [1]): inhibit or prevent IAPP-associated fibril assembly
- proportion of non-fibrillar IAPP in the supernatant (Human IAPP (hIAPP)): increase the proportion of non-fibrillar IAPP in the supernatant
- time point at which the increase of non-fibrillar IAPP was greater (Human IAPP (hIAPP); time zero versus time 24 h): greater at time zero
- time for which the reduced fluorescence level was stable (IAPP [2]): up to 15 hrs
- fluorescence units (IAPP [2]; compared with IAPP alone): reduced fluorescence below the level recorded for IAPP alone
- presence and morphology of fibrils (IAPP fibrils): contained fewer fibrils which were apparently short and long and not aggregated
- Activity (IAPP [3]): Active

- Activity (IAPP [3]): Active
SMILES: COc1ccc(S(=O)(=O)O)c2cccnc12 [vii, 8-methoxyquinoline-5-sulfonic acid]
- proportion of non-fibrillar IAPP in the supernatant (Human IAPP (hIAPP)): increase the proportion of non-fibrillar IAPP in the supernatant
- Extra amyloid % of total [4, 5]: 1.6%
- Extra amyloid area [4, 5]: 86.8 μm^2
- Extra amyloid % of total [4, 6]: 1.9% and 0.5% and 3.4%
- Extra amyloid area [4, 6]: 98.73 μm^2 and 37.9 μm^2 and 123.99 μm^2
